ChEMBL document CHEMBL2406912, “In vivo antimalarial activity of novel 2-hydroxy-3-anilino-1,4-naphthoquinones obtained by epoxide ring-opening reaction” (2013)

Tests used:
Format in all cases: functional
Plasmodium berghei [1] = assay: Antimalarial activity against Plasmodium berghei NK65 infected in Swiss albino mouse assessed as inhibition of parasitemia at 10 mg/kg, po qd for 4 days measured on day 5 to 7 of after infection relative to control
Plasmodium berghei [2] = assay: Antimalarial activity against Plasmodium berghei NK65 infected in Swiss albino mouse assessed as increase of survival days of host at 10 mg/kg, po qd for 4 days (reference value: 20 +/- 2.7 days)
Plasmodium berghei [3] = assay: Antimalarial activity against Plasmodium berghei NK65 infected in Swiss albino mouse assessed as increase of survival days of host at 100 mg/kg, po qd for 4 days (reference value: 20 +/- 2.7 days)
Plasmodium berghei [4] = assay: Antimalarial activity against Plasmodium berghei NK65 infected in Swiss albino mouse assessed as inhibition of parasitemia at 100 mg/kg, po qd for 4 days measured on day 5 of after infection relative to control
Plasmodium berghei [5] = assay: Antimalarial activity against Plasmodium berghei NK65 infected in Swiss albino mouse assessed as inhibition of parasitemia at 100 mg/kg, po qd for 4 days measured on day 7 of after infection relative to control

SMILES	inhibition in vivo at 10 mg/kg (Plasmodium berghei [1]) [%]	MSD (Plasmodium berghei [2]) [days]	MSD (Plasmodium berghei [3]) [days]	inhibition in vivo at 100 mg/kg (Plasmodium berghei [4]) [%]	inhibition in vivo at 100 mg/kg (Plasmodium berghei [5]) [%]
CCN(CC)CCCC(C)Nc1ccnc2cc(Cl)ccc12 (stereo unspecified) [CHLOROQUINE]	98	>60			
O=C1C(O)=C(Nc2ccccc2)C(=O)c2ccccc21			32.5	53.3	18.5
Cc1cccc(C)c1NC1=C(O)C(=O)c2ccccc2C1=O			26.7	0	0
COc1ccc(NC2=C(O)C(=O)c3ccccc3C2=O)cc1			26	66.6	25.9
